Data taken from ChEMBL document CHEMBL1201862, “PubChem BioAssay data set” (2004).
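In this assay, cells in 96-well plates receive the compound at five concentrations for 48 hours. Endpoints are linearly interpolated between the surrounding concentrations. At the GI50, growth is halved.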 Calls of active or inactive are those of the source. Rule as the data show it: active = GI50 up to about 1.1 µM and inactive = higher.

Columns and labels:
Assay in all cases: NCI-60 cell line screen, 48 h
A498 = system: A498
A549 = system: A549
DU-145 = system: DU-145
HCC 2998 = system: HCC 2998
HL-60 = system: HL-60
HOP-62 = system: HOP-62
HT-29 = system: HT-29
IGROV-1 = system: IGROV-1
K562 = system: K562
M14 = system: M14
NCI-H460 = system: NCI-H460
NCI-H522 = system: NCI-H522
PC-3 = system: PC-3
RXF 393 = system: RXF 393
SF-268 = system: SF-268
SK-MEL-28 = system: SK-MEL-28
SNB-19 = system: SNB-19
T47D = system: T47D
U-251 = system: U-251
UO-31 = system: UO-31

Measured: GI50

O=C1Cc2c(-c3ccccc3)cc(-c3ccc(Cl)cc3)nc2-c2ccccc2N1
inactive: A498 1.75 µM | A549 9.35 µM | DU-145 16.7 µM | HCC 2998 6.07 µM | HL-60 14.5 µM | HOP-62 3.66 µM | HT-29 3.66 µM | IGROV-1 4.62 µM | K562 19 µM | M14 9.95 µM | NCI-H460 3.21 µM | NCI-H522 2.18 µM | PC-3 10.1 µM | RXF 393 3.77 µM | SF-268 4.85 µM | SK-MEL-28 2.94 µM | SNB-19 1.94 µM | T47D 3.23 µM | U-251 1.72 µM | UO-31 2.05 µM

COC1(OC)CCN(Cc2ccccc2)C1=O
inactive: A498 17.5 µM | A549 17.7 µM | DU-145 15.2 µM | HCC 2998 18.2 µM | HL-60 1.69 µM | HOP-62 20.6 µM | HT-29 5.92 µM | IGROV-1 13.9 µM | K562 3.27 µM | M14 10.4 µM | NCI-H460 18.7 µM | NCI-H522 > 100 µM | PC-3 13.2 µM | RXF 393 12.3 µM | SF-268 > 38.1 µM | SK-MEL-28 9.62 µM | SNB-19 17.8 µM | T47D 4.45 µM | U-251 17.3 µM | UO-31 10.9 µM

COC(=O)[C@@H]1C=C[C@H](OC2OC(COC(C)=O)C(OC(C)=O)C(OC(C)=O)C2OC(C)=O)n2c(=O)c3ccccc3c(=O)n21 (stereo not given in full)
inactive: A498 12.2 µM | A549 21.4 µM | DU-145 16.1 µM | HCC 2998 16.1 µM | HL-60 3.95 µM | HOP-62 17.9 µM | HT-29 7.21 µM | IGROV-1 18.2 µM | K562 5.66 µM | M14 15.3 µM | NCI-H460 12.3 µM | NCI-H522 1.68 µM | PC-3 6.62 µM | RXF 393 6.05 µM | SF-268 > 10 µM | SK-MEL-28 13.2 µM | SNB-19 19.4 µM | T47D 4.7 µM | U-251 12 µM | UO-31 14.4 µM

O=C1Sc2ccc(Br)cc2C(=O)Sc2ccccc21
inactive: A498 20.9 µM | A549 27.1 µM | DU-145 11.8 µM | HCC 2998 14.5 µM | HL-60 2.42 µM | HOP-62 12.6 µM | HT-29 14.3 µM | IGROV-1 14.2 µM | K562 12.8 µM | M14 11.4 µM | NCI-H460 15.8 µM | NCI-H522 4.84 µM | PC-3 13 µM | RXF 393 4.56 µM | SF-268 7.08 µM | SK-MEL-28 19.5 µM | SNB-19 13.9 µM | T47D 9.29 µM | U-251 14.5 µM | UO-31 12.9 µM
